The values below come from PubChem BioAssay (NCI).

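Results reflect a 48-hour exposure of cells in 96-well plates to compound at five concentrations. Definition used: TGI = concentration required for complete inhibition of growth.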 A value given as a limit tells only on which side of the number the result lay.

Common to all, as to assay: NCI tumour cell line growth inhibition, 48 h
Test [1] deals with DU-145 prostate.
In test [2] the test system is NCI-H23 lung.
The test system of test [3] is OVCAR-8 ovarian.
In test [4] the test system is HOP-92 NSCLC.
Test [5] deals with MALME-3M melanoma.
Test [6] concerns MCF7 breast.
Test [7] relates to SNB-19 CNS.
The test system of test [8] is A498 renal.
Test [9] has as its system UACC-62 melanoma.
The subject of test [10] is KM12 colon.
Test [11] relates to HCT-116 colon.

Take `CCC(C)C1=C(O)[N+]2([O-])Oc3ccc(-c4c(O)c(O)c(-c5ccc(OC(C)=O)cc5)c(OC(C)=O)c4OC(C)=O)cc3OC2(C(C)CC)C(=O)N1O` (centres undefined): the TGI in [1], in [2], in test [3], in [4], in [5] and in [6] was above 50 µM in each case. Besides, the TGI in test [7], in test [8], in test [9] and in test [10] was above 50 µM in each case.
On to `CC(C)=CC[C@]12CCN(C)[C@H]1N(S(=O)(=O)c1ccccc1)c1ccccc12`, for which the TGI in test [1] was above 100 µM; in test [2], above 100 µM; in test [3] it was above 100 µM; in [11] it was above 100 µM; in test [4], above 79.9 µM; in [5] it was above 100 µM. Also, the TGI is above 72.9 µM in test [6]; above 100 µM in test [7]; above 100 µM in test [8]; above 62 µM in test [9]; above 100 µM in [10].
Regarding `Cc1ccc(C2(c3ccc(F)cc3)OC(=O)c3ccccc32)c(O)c1` (centres undefined), the TGI in test [1] stood at 28.7 µM; in test [2] it was 44.9 µM; in [3], 48 µM; in test [11], 26.2 µM; in test [4], 34.9 µM; in test [6], 37.5 µM. For the same molecule, the TGI in test [7] is 38.1 µM; in test [8] it was 36.7 µM; in [9], 23 µM; in test [10], 51.6 µM.
On to `COc1ccccc1C(=O)NCC1CCCN2CCCCC12` (centres undefined), for which the TGI in [1], in test [2], in test [3], in [11], in [4] and in test [5] was above 100 µM in each case. Also, the TGI in test [6], in [7], in [8], in test [9] and in [10] was above 100 µM throughout.
With `Cc1ccc2c(c1)nc1n2C(N)=Nc2ccccc2S1`, the TGI in [1], in test [2], in [3], in [11], in test [4] and in [5] was above 100 µM in each case. Further, the TGI was above 100 µM in [6]; above 100 µM in test [7]; above 91.6 µM in [8]; above 100 µM in test [9]; above 100 µM in test [10].
As to `O=C1CN(c2cccc(Cl)c2)C(=O)CN1NCNN1CC(=O)N(c2cccc(Cl)c2)CC1=O`, the TGI in test [1], in test [2], in [3], in test [11], in test [4] and in test [5] was above 100 µM in each case. The TGI in test [6], in test [7], in test [8], in test [9] and in test [10] was above 100 µM in each case.
For the molecule `Cn1c(=O)c2c(nc3sc4ccccc4c(=O)n32)n(C)c1=O`, the TGI in [1], in test [2], in [3], in test [11], in test [4] and in test [6] was above 100 µM throughout. For the same molecule, the TGI in test [7], in [8], in [9] and in test [10] was above 100 µM throughout.
As for `COc1cc2c(/C=C3/C(=O)Nc4ccc(Cl)cc43)c(Cl)[nH]c2cc1C`, the TGI came to 4.38 µM in test [1]; 7.13 µM in [2]; 19.7 µM in test [3]; 10.7 µM in [11]; 24.2 µM in test [4]; 20.9 µM in test [5]. Also, the TGI amounted to 34.9 µM in test [6]; 12.7 µM in test [7]; 22.9 µM in test [8]; 2.87 µM in [9]; 10 µM in [10].
`C/C(=N\Nc1nc2ccccc2s1)c1cc2ccccc2cn1`: the TGI is 12.6 µM in [1]; 18.1 µM in test [2]; 16.5 µM in test [3]; 10.6 µM in test [11]; 93.6 µM in test [4]; above 100 µM in test [5]. Also, the TGI in test [6] is above 100 µM; in test [7] it was above 100 µM; in test [8] it was 29 µM; in [9], 21.1 µM; in test [10] it was 94.4 µM.
Consider `COC(=O)Nc1nc2ccc(S(=O)(=O)N3CCOCC3)cc2[nH]1`, for which the TGI in test [1], in test [2], in [3], in [11], in test [4] and in test [5] was above 100 µM each time. For the same molecule, the TGI in test [6], in test [7], in test [8], in test [9] and in test [10] was above 100 µM in each case.
Take `CCCCCCCCCCCCCCCCNc1ccn(C2CC(O)C(COC(c3ccccc3)(c3ccccc3)c3ccc(OC)cc3)O2)c(=O)n1` (centres undefined): the TGI in test [1], in [2], in test [3], in test [11], in test [4] and in [5] was above 100 µM each time. Moreover, the TGI in test [6], in [7], in test [8], in test [9] and in [10] was above 100 µM in each case.
On to `O=c1[nH]c(NCc2ccc(Cl)cc2)nc2nc[nH]c12`, for which the TGI in test [1], in test [2], in test [3], in test [11], in [4] and in test [5] was above 100 µM each time. The TGI in test [6], in test [7], in test [8], in [9] and in [10] was above 100 µM throughout.
